Measurements from paper PMC9861092, “Napyradiomycin A4 and Its Relate Compounds, a New Anti-PRV Agent and Their Antibacterial Activities, from Streptomyces kebangsaanensis WS-68302” (Molecules, 2023).
Values after ≈ are worked out from the molar mass of the structure shown. “Also recorded” adds a separate entry of the source. Structures can show the parent of a compound that is named as a salt.

Columns and labels:
PRV (Pseudorabies virus) [1] = assay: microbe, parasite or virus in culture; conditions: Suid alphaherpesvirus 1, MARC145, 72 h, read-out: IC50 against PRV
[2] = tested on: Staphylococcus aureus ATCC 25923; assay: microbe, parasite or virus in culture; assay type: cell-based; conditions: for MIC: Staphylococcus aureus, ATCC25923, read-out: MIC S. aureus
[3] = tested on: Erysipelothrix rhusiopathiae WH13013; assay: microbe, parasite or virus in culture; assay type: cell-based; conditions: for MIC: Erysipelothrix rhusiopathiae, WH13013, read-out: MIC E. rhusiopathiae
[4] = tested on: Bacillus subtilis ATCC6633; conditions: cited from earlier work
in vitro = conditions: African green monkey
Streptococcus suis SC19 = assay: microbe, parasite or virus in culture; assay type: cell-based; conditions: for MIC: Streptococcus suis, SC19, read-out: MIC S. suis
PRV (Pseudorabies virus) [5] = tested on: PRV (Pseudorabies virus)
PRV protein = assay type: cell-based, Pseudorabies virus
[6] = tested on: Escherichia coli ATCC 25922; assay type: cell-based

For `CC(C)=CC[C@]12O[C@@]1(C/C=C(\C)CC/C=C(\C)C(=O)O)C(=O)c1cc(O)cc(O)c1C2=O` [Compound 6, A80915G-8″-acid], the IC50 (PRV (Pseudorabies virus) [1]) was 26.5 ± 5 µM, the MIC [2] was 50 µg/mL (≈ 114 µM) and the “MIC E. rhusiopathiae” value [3] was 25 µg/mL (≈ 56.8 µM). The MIC [3] was 25 to 50 µg/mL (≈ 56.8 to 114 µM), the “MIC against Bacillus subtilis ATCC6633” value [4] was 64 µg/mL (≈ 145 µM) and the CC50 (in vitro) was 46.3 ± 7.36 µM. For the same compound, the MIC (Streptococcus suis SC19) was 50 µg/mL (≈ 114 µM).
For `CC(C)=CCC/C(C)=C/C[C@@]12O[C@]1(CC=C(C)C)C(=O)c1c(O)cc(O)cc1C2=O` [Compound 5, A80915G], the “TI (therapeutic index = CC50/IC50)” value (PRV (Pseudorabies virus) [5]) was 2.05, the IC50 (PRV (Pseudorabies virus) [1]) was 8.26 ± 0.902 µM and the “MIC E. rhusiopathiae” value [3] was 25 µg/mL (≈ 60.9 µM). For the same compound, the MIC [3] was 25 to 50 µg/mL (≈ 60.9 to 122 µM), the CC50 (in vitro) was 16.7 ± 1.12 µM and the MIC (Streptococcus suis SC19) was 25 µg/mL (≈ 60.9 µM).
For `C=C1CC[C@H](Cl)C(C)(C)C1C[C@@]12OC(C)(C)[C@H](Cl)C[C@]1(Cl)C(=O)c1c(O)cc(O)cc1C2=O` (stereo partly shown) [Compound 4, napyradiomycin B1], the IC50 (PRV (Pseudorabies virus) [1]) was 13.3 ± 1.11 µM, the “MIC S. aureus” value [2] was “potent activities” and the MIC [2] was < 0.78 µg/mL. For the same compound, the “Suppression of PRV protein (green fluorescence intensity) in indirect immunofluorescence assay” value (shortened to “Suppression of PRV protein”) (PRV protein) was “significantly suppressed”, the “MIC E. rhusiopathiae” value [3] was 50 µg/mL (≈ 96.9 µM) and the MIC [3] was 25 to 50 µg/mL (≈ 48.5 to 96.9 µM). For the same compound, the CC50 (in vitro) was 19.6 ± 2.82 µM and the MIC (Streptococcus suis SC19) was 6.25 µg/mL (≈ 12.1 µM).
With `CC(C)=CCC/C(C)=C/C[C@]1(O)C(=O)c2cc(O)cc(O)c2C(=O)[C@@]1(Cl)CC=C(C)C` [Compound 7, naphthomevalin] the “IC50 against PRV” value (PRV (Pseudorabies virus) [5]) was “did not display any apparent anti-PRV activity”, the IC50 (PRV (Pseudorabies virus) [1]) was > 90 µM and the “MIC S. aureus” value [2] was “potent activities”. The MIC [2] was < 0.625 µg/mL, the MIC [3] was 40 µg/mL (≈ 89.5 µM) and the CC50 (in vitro) was > 0.045 µM. The MIC (Streptococcus suis SC19) was 20 µg/mL (≈ 44.7 µM).
With `CC(C)=CCC/C(C)=C/C[C@@]12OC(C)(C)[C@H](Cl)C[C@]1(Cl)C(=O)c1c(O)cc(O)cc1C2=O` [Compound 3, napyradiomycin A1] the “TI (therapeutic index = CC50/IC50)” value (PRV (Pseudorabies virus) [5]) was 2.62, the IC50 (PRV (Pseudorabies virus) [1]) was 2.21 ± 0.375 µM and the “MIC S. aureus” value [2] was “potent activities”. For the same compound, the MIC [2] was < 0.78 µg/mL, the “Suppression of PRV protein” value (PRV protein) was “significantly suppressed” and the “MIC E. rhusiopathiae” value [3] was 50 µg/mL (≈ 104 µM). The MIC [3] was 25 to 50 µg/mL (≈ 51.9 to 104 µM), the CC50 (in vitro) was 5.79 ± 0.708 µM and the MIC (Streptococcus suis SC19) was 3.12 µg/mL (≈ 6.49 µM).
With `CC(C)=CCC12OC1(CC=C(C)C(O)CC=C(C)CO)C(=O)c1cc(O)cc(O)c1C2=O` (stereo not shown) [Compound 2, A80915H] the “IC50 against PRV” value (PRV (Pseudorabies virus) [5]) was “did not display any apparent anti-PRV activity”, the IC50 (PRV (Pseudorabies virus) [1]) was > 90 µM and the “MIC S. aureus” value [2] was “did not show any activity and -”. For the same compound, the “MIC E. rhusiopathiae” value [3] was “did not show any activity and -”, the CC50 (in vitro) was > 90 µM and the “MIC S. suis” value (Streptococcus suis SC19) was “did not show any activity and -”.
With `CO/N=C(\C(=O)N[C@@H]1C(=O)N2C(C(=O)[O-])=C(C[n+]3cccc4c3CCC4)CS[C@H]12)c1csc(N)n1.O=S(=O)(O)O` [Cefpirome Sulfate, cefpirome sulfate, reference compound] the “MIC S. aureus” value [2] was <0.78 µg/mL, the “MIC E. rhusiopathiae” value [3] was <0.78 µg/mL and the “MIC E. coli” value [6] was 25 µg/mL. For the same compound, the “MIC S. suis” value (Streptococcus suis SC19) was <0.78 µg/mL.
For `CC(=CCC12OC(C)(C)C(Cl)CC1(Cl)C(=O)c1c(O)cc(O)cc1C2=O)CCC(=O)C(C)C` (stereo not shown) [Compound 1, napyradiomycin A4], the “TI (therapeutic index = CC50/IC50)” value (PRV (Pseudorabies virus) [5]) was 14.98, the IC50 (PRV (Pseudorabies virus) [1]) was 2.06 ± 0.343 µM and the MIC [2] was 25 µg/mL (≈ 50.3 µM). The “Suppression of PRV protein” value (PRV protein) was “strongest inhibition; also recorded: significantly suppressed”, the “MIC E. rhusiopathiae” value [3] was 50 µg/mL (≈ 101 µM) and the MIC [3] was 25 to 50 µg/mL (≈ 50.3 to 101 µM). The CC50 (in vitro) was 30.8 ± 5.57 µM, the “MIC S. suis” value (Streptococcus suis SC19) was “weak activity” and the MIC (Streptococcus suis SC19) was 100 µg/mL (≈ 201 µM).
With `NC(=O)c1ncn([C@@H]2O[C@H](CO)[C@@H](O)[C@H]2O)n1` [Ribavirin, reference compound] the “TI (therapeutic index = CC50/IC50)” value (PRV (Pseudorabies virus) [5]) was >2.82, the IC50 (PRV (Pseudorabies virus) [1]) was 58 µM and the CC50 (in vitro) was > 164 µM.
`CC1(C)S[C@@H]2[C@H](NC(=O)Cc3ccccc3)C(=O)N2[C@H]1C(=O)O` [Penicillin G, Penicillin G sodium salt, reference compound] gave an MIC [3] of 50 µg/mL and an MIC (Streptococcus suis SC19) of 12.5 µg/mL.
